Test results from patent US20260137706A1, “METHODS OF TREATING INFLAMMATORY DISEASES” (INTERLINE THERAPEUTICS, INC., priority 2023, published 2026).
Read-outs that look alike come from different tables or passages of the source.

Columns and labels:
[1] = molecular target: T1, GST-RIPK2 fusion protein (human RIPK2, amino acids 1-310) (Homo sapiens, UniProt O43353); assay: RIPK2 binding competition assay (TR-FRET, Tracer 199 displacement); details: 10 nM Tracer 199, 1 nM GST-RIPK2, read-out: RIPK2 IC50
T1 construct: made in house; host or cells: baculovirus infected Sf9 cells
Source text: The ability of selected compounds of Formula (I) to inhibit the binding of an Alexa647-labelled ATP-competitive kinase inhibitor to a GST-RIPK2 fusion protein was quantified employing the TR-FRET-based RIPK2 binding competition assay as described in the following paragraphs.
Recombinant fusion protein of N-terminal Glutathione-S-Transferase (GST) and a fragment of human RIPK2 (amino acids 1-310 of accession number 043353), expressed in baculovirus infected Sf9 cells, purified via glutathione affinity chromatography, was used as GST-RIPK2 fusion protein. Tracer 199 from Life Technologies (catalogue no. PR9115B) was used as Alexa647-labelled ATP-competitive kinase inhibitor.
For the assay, 50 nL of a 100-fold concentrated solution of each test compound in DMSO was pipetted into either a black low volume 384-well microtiter plate or a black 1536-well microtiter plate (both Greiner Bio-One, Frickenhausen, Germany), 3 μL solution of Tracer 199 (16.7 nM=>final concentration in 5 μL assay volume is 10 nM) in aqueous assay buffer (25 mM Tris/HCl pH 7.5, 10 mM magnesium chloride (MgCl2), 5 mM β-glycerophosphate, 2.5 mM dithiothreitol (DTT), 0.5 mM ethylene glycol-bis(2-aminoethylether)-N,N,N′,N′-tetraacetic acid (EGTA), 0.5 mM sodium ortho-vanadate, 0.01% (w/v) bovine serum albumin (BSA), 0.005% (w/v) Pluronic F-127 (Sigma)) were added. Then the binding competition was started by the addition of 2 μL of a solution of the GST-RIPK2 fusion protein (2.5 nM=>final conc. in the 5 μL assay volume is 1 nM) and of Anti-GST-Tb (1.25 nM=>final conc. in the 5 μL assay volume is 0.5 nM), a Lumi4®—Tb cryptate-conjugated anti-GST antibody from PerkinElmer (catalogue no 61GSTTAH), in assay buffer.
The resulting mixture was incubated 45 min at 22° C. to allow the formation of a complex between the Tracer 199, the fusion protein and Anti-GST-Tb. Subsequently, the amount of this complex was evaluated by measurement of the resonance energy transfer from the Tb-cryptate to the Tracer 199. Therefore, the fluorescence emissions at 620 nm and 665 nm after excitation at 337 nm were measured in a TR-FRET reader, e.g. a Pherastar FS (BMG Labtechnologies, Offenburg, Germany) or a Viewlux (PerkinElmer). The ratio of the emissions at 665 nm and at 620 nm was taken as the measure of the amount of the complex. The data were normalized (assay reaction without inhibitor=0% activity, all other assay components but no GST-RIPK2 fusion protein=−100% activity).
Table A1 below lists IC50 values of selected compounds of Formula (I) measured in the RIPK2 binding competition assay.

[2] = molecular target: T2, binding of His-XIAP(BIR2)-avi fusion protein to GST-RIPK2 fusion protein (RIPK2/XIAP) (Homo sapiens, UniProt O43353); assay: RIPK2-XIAP binding competition PPI assay (TR-FRET); details: RIPK2/XIAP binding competition PPI assay; for Emax: read-out: PPI Amax bin; for IC50: read-out: PPI IC50 bin
T2 construct: made in house; host or cells: baculovirus infected Sf9 cells
Source text: The ability of selected compounds of Formula (I) to inhibit the binding of an His-XIAP(BIR2)-avi fusion protein to a GST-RIPK2 fusion protein was quantified employing the TR-FRET-based competition assay as described in the following paragraphs.
Recombinant fusion protein of N-terminal Glutathione-S-Transferase (GST) and a fragment of human RIPK2 (amino acids 1-310 of accession number 043353), expressed in baculovirus infected Sf9 cells, purified via glutathione affinity chromatography, was used as GST-RIPK2 fusion protein. Recombinant fusion protein of N-terminal 6×Histidine (His), a fragment of human XIAP (amino acids 152-231 of accession number P98170), and C-terminal avi tag, expressed in baculovirus infected Sf9 cells, purified via Nickel NTA affinity chromatography, was used as the His-XIAP(BIR2)-avi fusion protein.
For the assay, a working solution of 1 nM GST-RIPK2, 25 nM His-XIAP(BIR2)-avi, 6 nM Anti-His-XL665 […] (Revvity Catalogue No. 61HISXLB), and 0.5 nM Anti-GST-Tb (Revvity Catalogue No. 61GSTTLB) in 25 mM Tris-HCl 7.5, 0.5 mM ethylene glycol-bis(2-aminoethylether)-N,N,N′,N′-tetraacetic acid (EGTA), 10 mM magnesium chloride (MgCl2), 2.5 mM dithiothreitol (DTT), 0.01% (w/v) bovine serum albumin (BSA), 0.005% (w/v) Pluronic F-127 (Sigma), 0.5 mM sodium ortho-vanadate, 5 mM β-Glycerophosphate disodium salt hydrate (BGP) was prepared. 50 nL of a 100-fold concentrated solution of each test compound in DMSO was dispensed via acoustic dispensing into a white low volume 384-well microtiter plate (Perkin Elmer Catalogue No. 6008280). Subsequently, 5 μL of the assay working solution were added.
The resulting mixture was incubated 120 min at 23° C. Subsequently, the amount of complex formed by the GST-RIPK2, XIAP(BIR2)-avi, Anti-His-XL665, and Anti-GST-Tb was evaluated by measurement of the resonance energy transfer from the Tb-cryptate to the XL665. Therefore, the fluorescence emissions at 520 nm and 665 nm after excitation at 337 nm were measured in a TR-FRET reader, e.g. a Pherastar FS (BMG Labtechnologies, Offenburg, Germany) or an Envision (PerkinElmer). The ratio of the emissions at 665 nm and at 520 nm was taken as the measure of the amount of the complex. The data were normalized (assay reaction without inhibitor=0% activity, 50 nM of GSK583=−100% activity).
For the RIPK2/XIAP binding competition PPI assay Amax values, “A” denotes an Amax of ≥80%; “B” denotes an Amax of 80%>B≥55; “C” denotes an Amax of 55%>C>30; and “D” denotes an Amax of ≤30%.

[3] = tested on: NF-κB pathway (SEAP) in THP1-Dual cells; assay: THP-1 Dual cell SEAP assay (L18-MDP stimulated); type: cell-based; details: read-out: NF-κB THP1 IC50 bin
Method: THP1-Dual™ cells (InvivoGen Cat #thpd-nfis) allow simultaneous assessment of the NF-κB pathway, by monitoring the activity of secreted embryonic alkaline phosphatase (SEAP) as well as the IRF pathway, by assessing the activity of a secreted luciferase (Lucia). Cells were cultured according to manufacturers' recommendations. For the assay, cell concentration was adjusted to 7.14×10^5 cells/mL in assay media (RPMI 1640, 2 mM L-Glutamine, 25 mM HEPES, 10% fetal bovine serum (heat-inactivated for 30 min at 56° C.), Pen-Strep (100 U/mL)) and 35 µL of cell suspension (˜25,000 cells) per well were added to a flat bottom 384-well plate (white opaque). Plate was centrifuged at 300 g for 2 min, compounds were added in serial dilution series according to the plate layout (volumes ˜500 nL-0.0152 nL) and plate was incubated at 37° C. in 5% CO2 for 30 min. Using assay media, a L18-MDP stock solution, that results in a final concentration of 10 ng/mL L18-MDP in each well when adding 15 μL to each well, was prepared. 15 μL of L18-MDP stock solution was added to each well, while 15 μL of assay media was added to the negative control wells. Plates were subsequently incubated at 37° C. in 5% CO2 overnight (20-24 h).
For the SEAP assay: without disturbing the cells at the bottom of the well, 15 μL supernatant was transferred to a clear 384-well flat bottom plate and 35 μL QUANTI-Blue Solution per well was added. Following a 2 h incubation at 37° C., the optical density (OD) was measured at 620-655 nm using a microplate reader (PheraStar FS microplate reader with protocol for OD 620-655 nm).
Values of media-only wells were subtracted and % inhibition for each compound concentration relative to the DMSO/L18-MDP-treated controls was calculated. Inhibition values+/−SD were fitted by non-linear regression using Prism software (GraphPad PRISM Software) to calculate IC50 values.

T2 sequence (O43353 1-310 limits assumed): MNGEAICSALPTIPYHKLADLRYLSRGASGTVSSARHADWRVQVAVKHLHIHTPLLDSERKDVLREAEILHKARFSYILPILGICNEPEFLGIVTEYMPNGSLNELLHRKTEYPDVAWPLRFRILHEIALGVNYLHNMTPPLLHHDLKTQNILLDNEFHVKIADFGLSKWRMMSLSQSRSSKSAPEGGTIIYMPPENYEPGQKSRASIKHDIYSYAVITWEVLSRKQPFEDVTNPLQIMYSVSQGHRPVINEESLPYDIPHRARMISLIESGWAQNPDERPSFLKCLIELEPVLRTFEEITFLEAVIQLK
T1 sequence (O43353 1-310): as the sequence (O43353 1-310 limits assumed) above

Structure (SMILES)	IC50 [1]	Emax ([2]; Amax)	IC50 [2]	IC50 ([3]; Homo sapiens, THP1-Dual)	PPI Amax bin ([2]; Amax)	IC50 [3]
COc1cc2ncc(-c3ccc4nc(N)oc4c3)n2cc1S(=O)(=O)C(C)(C)C [Example 96, 6-(6-(tert-butylsulfonyl)-7-methoxyimidazo[1,2-a]pyridin-3-yl)benzo[d]oxazol-2-amine]	2.5 to 20 nM	< 30%	> 20 nM	250 to 1000 nM		
COc1cc2ncc(-c3cc(F)c(OC)c(NS(=O)(=O)C4(CO)CC4)c3)n2cc1S(=O)(=O)C(C)(C)C [Example 180, N-(5-(6-(tert-butylsulfonyl)-7-methoxyimidazo[1,2-a]pyridin-3-yl)-3-fluoro-2-methoxyphenyl)-1-(hydroxymethyl)cyclopropane-1-sulfonamide]	1 to 2.5 nM	> 80%	< 1 nM	50 to 250 nM		
COc1cc2ncc(-c3ccc4c(N)noc4c3)n2cc1S(=O)(=O)C(C)(C)C [Example 93, 6-(6-(tert-butylsulfonyl)-7-methoxyimidazo[1,2-a]pyridin-3-yl)benzo[d]isoxazol-3-amine]	2.5 to 20 nM	< 30%	> 20 nM	250 to 1000 nM		
COc1cc2ncc(-c3cnc4c(c3)CC(=O)N4)n2cc1S(=O)(=O)C(C)(C)C [Example 83, 5-(6-(tert-butylsulfonyl)-7-methoxyimidazo[1,2-a]pyridin-3-yl)-1,3-dihydro-2H-pyrrolo[2,3-b]pyridin-2-one]	> 20 nM	< 30%	> 20 nM	> 1000 nM		
[2H]C([2H])([2H])Oc1c(F)cc(-c2cnc3cc(OC)c(S(=O)(=O)C(C)(C)C)cn23)cc1NS(=O)(=O)CC1COC1 [Example 133, N-(5-(6-(tert-butylsulfonyl)-7-methoxyimidazo[1,2-a]pyridin-3-yl)-3-fluoro-2-(methoxy-d3)phenyl)-1-(oxetan-3-yl)methanesulfonamide]	< 1 nM	55 to 80%	< 1 nM	< 50 nM		
CCCS(=O)(=O)Nc1cc(-c2cnc3cc(OC)c(S(=O)(=O)C(C)(C)CO)cn23)cc(OC)c1OC [Example 59, N-(5-(6-((1-hydroxy-2-methylpropan-2-yl)sulfonyl)-7-methoxyimidazo[1,2-a]pyridin-3-yl)-2,3-dimethoxyphenyl)propane-1-sulfonamide]	< 1 nM	> 80%	< 1 nM	< 50 nM		
CC(C)(C)S(=O)(=O)c1cn2c(-c3cnc4c(c3)C3(CC3)CN4)cnc2cc1OCCO [Example 237, 2-((6-(tert-butylsulfonyl)-3-(1′,2′-dihydrospiro [cyclopropane-1,3′-pyrrolo[2,3-b]pyridin] -5′-yl)imidazo[1,2-a]pyridin-7-yl)oxy)ethan-1-ol]	> 20 nM	< 30%	> 20 nM	> 1000 nM		
CC(C)(C)S(=O)(=O)c1cn2c(-c3cc(F)c(N)nc3F)cnc2cc1OCC(F)(F)CO [Example 54, 3-((3-(6-amino-2,5-difluoropyridin-3-yl)-6-(tert-butylsulfonyl)imidazo[1,2-a]pyridin-7-yl)oxy)-2,2-difluoropropan-1-ol]	1 to 2.5 nM	> 80%	2.5 to 20 nM	50 to 250 nM		
COc1cc2nc(Cl)c(-c3ccc(N)nc3F)n2cc1S(=O)(=O)C(C)(C)C [Example 10, 5-(6-(tert-butylsulfonyl)-2-chloro-7-methoxyimidazo[1,2-a]pyridin-3-yl)-6-fluoropyridin-2-amine]	> 20 nM	> 80%	> 20 nM			
CC(C)(C)C(C)(O)c1cn2c(-c3cc(F)c(N)nc3F)cnc2cc1OCCO (stereo not shown) [Example 193, 2-(3-(6-amino-2,5-difluoropyridin-3-yl)-7-(2-hydroxyethoxy)imidazo[1,2-a]pyridin-6-yl)-3,3-dimethylbutan-2-ol]	2.5 to 20 nM	> 80%				
COc1cc2ncc(-c3cc(F)c(OC)c(NS(=O)(=O)c4cn[nH]c4)c3)n2cc1C(F)(F)F [Example 137, N-(3-fluoro-2-methoxy-5-(7-methoxy-6-(trifluoromethyl)imidazo[1,2-a]pyridin-3-yl)phenyl)-1H-pyrazole-4-sulfonamide]		> 80%	2.5 to 20 nM	250 to 1000 nM		
COc1cc2ncc(-c3cc(F)c(OC)c(NC(C)c4cnn(C)c4)c3)n2cc1S(=O)(=O)C(C)(C)C (single isomer, unassigned) [Example 303]			2.5 to 20 nM		A (an Amax of ≥80%)	250 to 1000 nM
